# Data as given in article PMC5686756, “IKKγ-Mimetic Peptides Block the Resistance to Apoptosis Associated with Kaposi's Sarcoma-Associated Herpesvirus Infection” (Journal of Virology, 2017).
# Positions of bridges follow the written chain, without caps; N, C: chain ends. Non-standard residues stand in square brackets, D forms with d. Residues, ends and D or L forms follow the SMILES beside them. S5 = C=CCCC[C@](C)(N)C(=O)O
# Assays:
# BC3 cells = assay type: cell-based, human; conditions: for BC3 cell death, agent individually: TNF-α or ETO alone
# Procedure: (§1) Given their profound impact on NF-κB activation, we next assessed whether IKKγ-mimetic peptides could sensitize BC3 cells to TNF-α and ETO and thus stimulate cell death. To investigate this in cellulo, BC3 cells were transduced with the GST-IKKγ peptide vector prior to treatment with TNF-α or ETO, and after 24 h, their viabilities were assessed. As a control, similar trials were conducted but with GST-IKKγDM, which harbors the same peptide containing the F238R D242R IKKγ double mutations previously shown to impair ks-vFLIP binding and consequently NF-κB activation ([27]). […] We also determined whether spIKKγ could have a similar effect. Owing to the presence of the aliphatic linker and overall positive charge (+0.1), we reasoned that spIKKγ was likely to be cell permeable based on studies involving a diverse range of unrelated stapled peptides ([28][–][32]). […] The effects of SPIKKγ were also investigated on BCP-1 cells, an additional PEL cell line.
# Lentiviral vectors expressing GST or GST fusion peptides together with green fluorescent protein (GFP), CherryFP, WT vFLIP, or vFLIPA57L (a mutant which fails to bind IKKγ) were produced as previously described ([19]). […] In each case, lentiviral vector doses were used to ensure that over 95% of cells were positive for the relevant fluorescent protein. […]
# (§2) The transfected cells, the human B cell lines BC3, BCP-1, and DG75 (a […] negative for KSHV and Epstein-Barr virus [EBV]) were treated with human TNF-α (PeproTech or Alomone Labs), ETO (Sigma), spIKKγ (encompassing IKKγ residues 230 to 248; see Fig. 3 for structure), or combinations of spIKKγ with either TNF-α or ETO. Cell survival was determined after 24 and 48 h by trypan blue staining and counting with a hemocytometer. Cell viability is expressed as a percentage of the number of viable cells per culture at the start of each experiment. […] Significance difference was calculated by two-way analysis of variance (ANOVA) with Fisher's least significant difference (LSD) posttest.
# DG75 cells = experiment: Cell viability assay (trypan blue), DG75 cells; assay type: cell-based, human
# Procedure: as §1
# BC3, BCP-1, and DG75 cells were purchased for this study from the American Type Culture Collection (ATCC). They were verified as human B cell lines by surface staining for human Ig.
# as §2
# Jurkat cells = experiment: Cell viability assay (trypan blue), Jurkat cells; assay type: cell-based, human; conditions: for rescue of Jurkat cell survival by WT ks-vFLIP: FADD/ATG3 siRNA Jurkat cells overexpressing WT ks-vFLIP; for protection by ks-vFLIP, IKKγ-null cells: Jurkat cells null for IKKγ; for protection by A57L ks-vFLIP mutant against induced apoptosis: Jurkat cells with A57L ks-vFLIP; for Jurkat cell survival, FADD or ATG3 silenced or IKKγ null: no ks-vFLIP rescue, FADD siRNA, ATG3 siRNA
# Text: Although it has been established that dysregulated activation of the canonical NF-κB pathway by ks-vFLIP renders mouse embryonic fibroblasts resistant to apoptosis induced by TNF-α ([12]), we sought to ascertain whether ks-vFLIP expression also prevents cell death induced by ETO. Unlike TNF-α, which instigates death receptor signaling, ETO, a topoisomerase II inhibitor, initiates cell death through the generation of DNA double-strand breaks ([20]). […] We next investigated the potential involvement of death-inducing signaling complex (DISC) formation and autophagy since ks-vFLIP has been cited (somewhat controversially) to interact with procaspase 8, an […] whose activation requires the adaptor protein FADD ([21]), and to physically associate with the ubiquitin-like conjugating enzyme ATG3, which is essential for the formation of autophagosomes ([11]). Viability assays were therefore conducted using Jurkat cells in which FADD and ATG3 were silenced (using small interfering RNA [siRNA]) together with those null for IKKγ in the presence of both ETO and TNF-α (Fig. 1C and D).
# Lentiviral vectors expressing GST or GST fusion peptides together with green fluorescent protein (GFP), CherryFP, WT vFLIP, or vFLIPA57L (a mutant which fails to bind IKKγ) were produced as previously described ([19]). […] In each case, lentiviral vector doses were used to ensure that over 95% of cells were positive for the relevant fluorescent protein. The anti-FADD antibody used for immunoblots was purchased from BD Biosciences, and those for anti-ATG3 and anti-glyceraldehyde-3-phosphate dehydrogenase (anti-GAPDH) were from Cell Signaling Technology. Jurkat cells and their IKKγ-null derivatives were obtained from Alain Israel, Institute Pasteur, and verified as human T cells by surface CD3 staining.
# as §2
# GB1–ks-vFLIP = target: T1, GB1–ks-vFLIP (Human herpesvirus 8 type P, UniProt F5HEZ4); experiment: biochemical; assay type: binding, Kaposi's sarcoma-associated herpesvirus
# T1 construct: ks-vFLIP (residues 1 to 188) was PCR cloned into the EcoRI and XhoI sites of GB1-pBR22b; 6His (C); made in house; host or cells: E. coli BL21(DE3)
# Procedure: We next sought to assess the affinity of spIKKγ for vFLIP using isothermal calorimetry (ITC).
# Isothermal calorimetry (ITC) experiments were performed using a Microcal VP-ITC micocalorimeter (MicroCal). For all binding reactions, syringe concentrations varied between ∼85 and 100 μM for IKKγ(150–272) and cell concentrations between ∼8 and 10 μM for GB1-vFLIP. Titrations consisted of an initial 2-μl injection, followed by 20 10-μl injections with stirring at 300 rpm. In competition assays, GB1–ks-vFLIP was first incubated with 20 μM spIKKγ and DMSO to 4% prior to loading into the cell and titration with IKKγ(150–272). All ITC binding experiments were performed in deionized water at 25°C owing to the buffer constraints of spIKKγ, GB1–ks-vFLIP, and IKKγ(150–272), where GB1–ks-vFLIP and IKKγ(150–272) were buffer matched by overnight dialysis, followed by the addition of 4% DMSO to each. […] Following collection, all data were analyzed using ORIGIN 70 software and fitted to a one-site binding model with each experiment performed at least in triplicate.
Compound,"BC3 cell death, agent individually (BC3 cells)","DG75 viability at 48 h, ETO (or ETO plus spIKKγ) (DG75 cells; Fig. 5E, 48 h)",DG75 sensitivity to ETO (DG75 cells; after 48 h),"rescue by WT ks-vFLIP, ATG3 siRNA (Jurkat cells; ATG3 siRNA Jurkat cells, ETO)","Jurkat cell survival, null for ks-vFLIP (Jurkat cells; ETO 50 μM, cells null for ks-vFLIP)","Jurkat cell survival with ks-vFLIP (Jurkat cells; ETO 50 μM, ks-vFLIP-expressing cells)",rescue of Jurkat cell survival by WT ks-vFLIP (Jurkat cells),"protection by ks-vFLIP, IKKγ-null cells (Jurkat cells)",protection by A57L ks-vFLIP mutant against induced apoptosis (Jurkat cells),"Jurkat cell survival, FADD or ATG3 silenced or IKKγ null (Jurkat cells)",solubility in aqueous solutions,"IC50 (BC3 cells; spIKKγ alone, after 24 h, trypan blue, triplicate independent experiments, read-out: 50% inhibitory concentration (IC50), BC3 viability)",Ki (GB1–ks-vFLIP),"DG75 viability, control experiment (DG75 cells; Fig. 5E, spIKKγ or TNF-α alone or in combination, 24 and 48 h)","Jurkat cell survival, trend versus ETO (Jurkat cells; TNF-α, various concentrations, with and without ks-vFLIP)"
"COc1cc([C@@H]2c3cc4c(cc3[C@@H](O[C@@H]3O[C@@H]5CO[C@@H](C)O[C@H]5[C@H](O)[C@H]3O)[C@H]3COC(=O)[C@H]23)OCO4)cc(OC)c1O [ETO, etoposide]",negligible effects individually,significant reduction in viability,Considerable sensitivity,to a lesser degree,severely compromised,only moderately reduced,could to a large extent be rescued,completely refractory to the protective effects of ks-vFLIP,could not protect cells against apoptosis,severely compromised in all three scenarios,,,,,
CC[C@H](C)[C@H](NC(=O)[C@H](Cc1c[nH]cn1)NC(=O)[C@H](CC(N)=O)NC(=O)[C@H](CC(=O)O)NC(=O)[C@H](Cc1ccc(O)cc1)NC(=O)[C@]1(C)CCCC=CCCC[C@](C)(NC(=O)[C@H](Cc2c[nH]cn2)NC(=O)[C@H](Cc2ccc(O)cc2)NC(=O)[C@H](C)NC(=O)[C@@H](NC(=O)[C@H](CCC(N)=O)NC(=O)[C@H](CC(C)C)NC(C)=O)C(C)C)C(=O)N[C@@H](CC(C)C)C(=O)N[C@@H](Cc2ccccc2)C(=O)N[C@@H](CCC(N)=O)C(=O)N1)C(=O)N[C@@H](CCCCN)C(=O)N[C@@H](CO)C(=O)N[C@@H](CO)C(=O)N[C@@H](CS)C(N)=O [spIKKγ] (Ac-LQVAYH[S5]LFQ[S5]YDNHIKSSC-NH2; staple 7-11),,,,,,,,,,,poor solubility,~75 µM,0.257 µM,,
TNF-α,negligible effects individually,,,,,,could to a large extent be rescued,completely refractory to the protective effects of ks-vFLIP,could not protect cells against apoptosis,severely compromised in all three scenarios,,,,failed to have a negative impact,closely mirror the trend
